The values that follow come from the METLIN SMRT retention time set (Domingo-Almenara et al. 2019).

The nature of this data set: gradient 5% acetonitrile 3 min, to 50% in 2 min, to 85% in 15 min, held 3 min, 100 µL/min. The conditions noted are these: column: Zorbax Extend-C18 2.1 x 50 mm; eluents: water / acetonitrile, 0.1% formic acid. In short, it runs like this:
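Using water and acetonitrile that each contained 0.1% formic acid, mixtures of ~100 pure standards were separated at 100 μL/min on a Zorbax Extend-C18 column (2.1 × 50 mm, 1.8 μm). The HPLC fed a quadrupole time-of-flight mass spectrometer working in positive and negative ionization mode, with dead and dwell volumes of 40 μL and 900 μL. Data were acquired over 3 months. Retention time was read from computationally picked adduct peaks after manual inspection of each.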
With `CCN1C(=O)COc2ccc(-c3noc(C(C)Oc4ccccc4)n3)cc21` (stereo not drawn), the RP-LC retention time is 1090 s.
Take `CC(CCc1ccco1)NC(=O)C1CCc2nc(N3CCCC3)ncc2C1` (stereo not drawn): the RP-LC retention time amounted to 620 s.
As for `COc1ccc(CC(C)(O)CNC(=O)Nc2cccs2)cc1` (stereo not drawn), the figure is 699 s.
As for `CCOC(=O)c1scc(-c2ccc(C)cc2)c1S(=O)(=O)N1CCN(c2ccccn2)CC1`, the figure is 866 s; as for `Cc1ccc(C)c(-c2cc3c4nn(CC(=O)N(C)c5ccccc5)c(=O)n4ccn3n2)c1`, 1010 s.
As for `CCc1nc(OCC(=O)NCc2ccc(F)cc2)c2ccccc2n1`, the figure is 753 s; as for `Cc1ccc(NC(=O)N2CCCC(Cn3cnc4cccnc43)C2)cc1Cl` (stereo not drawn), 747 s.
Compound `COC(=O)c1cccc(Nc2c(-c3ccc(SC)cc3)nc3cnccn23)c1` returned an RP-LC retention time of 887 s.
As for `Cc1c(Cl)cccc1NC1=NS(=O)(=O)c2ccccc21`, the figure is 813 s; as for `COc1ccc(CSc2nccc3c2ccn3CC(=O)NCc2ccc(C)o2)cc1`, 725 s; as for `O=C(O)Cn1c(-c2cccnc2)nc2ccccc21`, 564 s.
Regarding `CCN(CC)S(=O)(=O)c1ccc2c(c1)cc(C(=O)NCCN(C)C)n2C`, the RP-LC retention time stood at 639 s.
Next, `O=C(Cc1nnc(-c2ccc3ncccc3c2)o1)Nc1ccc(F)cc1`: 697 s; `Cc1cc(NC(=O)c2csc(-c3ccc(N4CCCC4)nc3)n2)ccc1F`: 795 s.
The compound `O=C(c1cnccn1)N1CCCC1c1nc(CCOCC2CC2)no1` (stereo not drawn) returned an RP-LC retention time of 698 s.
Regarding `Cc1nn(-c2ccccc2)c2sc(C(=O)Oc3ccc(F)cc3)cc12`, the RP-LC retention time turned out to be 1380 s.
For the compound `Cn1ncc2c(N3CCCCC3)nc(C(=O)N3CCN(c4ccc(F)cc4)CC3)nc21`, the RP-LC retention time is 894 s.
Turning to `CC1CCN(S(=O)(=O)c2nn(C)cc2C(=O)NCc2ccc3c(c2)OCO3)CC1`, the RP-LC retention time was 832 s.
Turning to `O=S(=O)(CCc1noc(-c2cc(F)cc(F)c2)n1)c1ccccc1`, the RP-LC retention time amounted to 939 s.
Regarding `O=c1c2sccc2n(Cc2nc(-c3ccc(C(F)(F)F)cc3)no2)c(=O)n1-c1cccc(F)c1`, the RP-LC retention time is 1090 s.
As for `Cc1cnc(C2CCOCC2)n1CC1CN(C(=O)C2CC=CC2)C1`, the figure is 568 s; as for `O=C(Cc1ccc(F)cc1)NC1CCN(c2cc(-c3ccc(Cl)cc3)[nH]n2)C1` (stereo not drawn), 789 s; as for `Cc1ccc(C)c2sc(N(C)CC(=O)NCCn3nc(-c4ccco4)ccc3=O)nc12`, 784 s.
As for `Cc1cc(N2CCN(C)CC2)nc(N2CCN(S(=O)(=O)c3ccc(-c4ccccc4)cc3)CC2)n1`, the figure is 615 s.
As for `Cc1nc(-c2cc3ccccc3nc2N2CCN(c3ccccc3F)CC2)no1`, the figure is 711 s.
For the compound `CCCN1C(=O)COc2ccc(-c3noc(Cc4cccc(F)c4)n3)cc21`, the RP-LC retention time came to 1100 s.
With `Cc1cc(C(=O)Nc2nnc(CCSc3ccccc3)o2)on1`, the RP-LC retention time worked out at 694 s.
For the compound `Cc1ccc(Oc2nccnc2N2CCCC(C(=O)NC(C)c3ccc(C)cc3C)C2)cc1` (stereo not drawn), the RP-LC retention time came to 1160 s.
Take `CC(=O)N1CCc2ccc(NC(=O)Cc3ccc(-c4ccccc4)cc3)cc2C1`: the RP-LC retention time is 800 s.
Next, `Cc1sc2cc(C(=O)N3CCN(c4ccccn4)CC3)[nH]c2c1CN1CCOCC1`: 568 s; `O=C1COc2ccc(S(=O)(=O)N3CCC(C(=O)Nc4ccc5c(c4)OCO5)CC3)cc2N1`: 715 s; `C=CCn1c(C)c(CC(=O)Nc2ccc(C)cc2)c(=O)n2nc(-c3ccc(C)cc3)nc12`: 991 s.
Next, `Cc1ccc(-n2nc(C)c(S(=O)(=O)Nc3ccc(S(N)(=O)=O)cc3)c2C)cc1`: 765 s.
Next, `Cc1cc(CNC(=O)C(=O)Nc2cc(Cl)ccc2C#N)c(C)o1`: 958 s.
For the compound `Cc1ccc(C2Cn3nnc(-c4nc(-c5ccc(F)cc5)no4)c3CO2)c(C)c1` (stereo not drawn), the RP-LC retention time came out at 1300 s.
As for `COc1ccc(NC(=O)N2CCCC(Cn3cnc4cccnc43)C2)cc1OC` (stereo not drawn), the figure is 620 s; as for `COc1ccccc1NC(=O)c1ccc(NS(=O)(=O)c2cc(C)ccc2C)cc1`, 926 s.
For the compound `CC1CCN(c2cc(-n3cnc(C(=O)NCc4ccco4)c3)ncn2)CC1`, the RP-LC retention time was determined as 678 s.
Next, `Cc1nnc2cc(N3CCN(S(=O)(=O)c4ccc(F)cc4)CC3)cnn12`: 670 s; `COC(=O)c1ccc(NC(=O)c2c(O)c3cccnc3n(-c3ccc(F)cc3)c2=O)cc1`: 1210 s.
`Nc1nc(N2CCC3(CC2)OCCO3)ncc1S(=O)(=O)c1ccc(Cl)cc1`: the RP-LC retention time was 896 s.
Compound `Cc1ccn2c(NC(=O)c3cccc(Br)c3)c(-c3ccccc3)nc2c1` returned an RP-LC retention time of 715 s.
For the compound `CCC(C)N(CC(=O)N1CCc2sccc2C1COc1ccc(F)cc1)C(=O)COC` (stereo not drawn), the RP-LC retention time was 906 s.
As for `O=C(CN1CCCc2nc(C3CC3)ncc2C1=O)NC1CCCC1`, the figure is 673 s.
`CC(C)NC(=O)C1CC(=O)N(c2n[nH]c3cccc(F)c23)C1` (stereo not drawn) yielded an RP-LC retention time of 621 s.
With `COC(=O)c1cc(S(=O)(=O)N2CCCC2C(=O)Nc2ccc(C(C)C)cc2)cn1C` (stereo not drawn), the RP-LC retention time was 1020 s.
`Cc1ccc2c(c1)C(C)(C)C(=O)N2CC(=O)NCc1cccnc1`: the RP-LC retention time was 612 s.
`COc1ccc(NS(=O)(=O)c2cc(-c3nc(C)c(C(=O)N4CCCC4)s3)n(C)c2)c(OC)c1` displayed an RP-LC retention time of 794 s.
As for `CC1=C(c2ccc(C)cc2)S(=O)(=O)N=C1N1CCCN(C(=O)C2CCCC2)CC1`, the RP-LC retention time amounted to 872 s.
For the compound `CCN1C(=O)COc2ccc(-c3noc(C4CC(=O)N(c5ccc(C)c(C)c5)C4)n3)cc21` (stereo not drawn), the RP-LC retention time came to 992 s.
As for `CCCn1c(=O)c(C)nc2cc(-c3noc(-c4sccc4C)n3)ccc21`, the figure is 1240 s; as for `COc1ccc(-c2cc(NS(C)(=O)=O)n(C3CCS(=O)(=O)C3)n2)cc1` (stereo not drawn), 696 s; as for `CCOc1ccc(-c2nc(Cn3nnc(C(=O)Nc4ccccc4OC)c3C)c(C)o2)cc1`, 1150 s.
With `O=C(NCc1cccnc1-c1ccccc1)c1ccc(Br)cc1`, the RP-LC retention time was 686 s.
In turn, `Cc1ccc(-c2csc(Cc3nc(-c4ccccc4)no3)n2)cc1` registered an RP-LC retention time of 1250 s.
Consider `CCc1csc(-c2ccc(N3CCN(C(=O)c4ccc(OC)c(F)c4)CC3)nc2)n1`, for which the RP-LC retention time turned out to be 936 s.
`CCOc1ccc(NC(=O)c2cnc3c(c2)c(=O)n(C)c(=O)n3-c2ccccc2)cc1`: the RP-LC retention time stood at 904 s.
Next, `CC(NC(=O)C1CCN(C(=O)c2ncn3c2COC(c2ccc(F)cc2)C3)CC1)c1ccccc1` (stereo not drawn): 809 s.
